From publication PMC2720045 (Proteins, 2009)
Entries after “also recorded” stand apart in the source; their conditions may differ. Like-named read-outs stand apart in the source and are kept apart here.

Assays:
[1] = target: PRD29N (HIV-1 protease D29N mutant) (Human immunodeficiency virus type 1, UniProt P03367, D529N, form not given); conditions: inhibitor 28 μM, pH 4.8-5.0; unliganded PRD29N 59.0
P. falciparum = conditions: cited from earlier work
porcine pepsin [2] = target: T1, porcine pepsin (Sus scrofa, UniProt P00791); assay: ITC titration of pepsin with inhibitors; type: binding; conditions: for binding constant (KL) from curve fitting of ITC data, pepsin / stoichiometry of binding to pepsin: 28 °C; for binding constant (KL) from curve fitting of ITC data, pepsin: 50 mM sodium formate pH 3; for stoichiometry of binding to pepsin: pH 3
porcine pepsin [3] = target: T1, porcine pepsin; assay: Kinetic inhibition of pepsin; type: biochemical; conditions: for inhibition at 16 µM: pH 3, read-out: Inhibition of pepsin under the screening conditions; for Inhibition of pepsin under the screening conditions: 175 μM substrate, pH 3.0-3.2, 28 °C
porcine pepsin [4] = target: T1, porcine pepsin; assay: DSC of pepsin with inhibitors; type: binding; conditions: DSC pH 3; […] (APV) or 2-fold (Ac-PEP) molar excess; unliganded pepsin Tm 74.2
[5] = target: T2, mature HIV-1 protease (PR) (Human immunodeficiency virus type 1, UniProt P03367); conditions: cited from earlier work; for Binding constant (Ka), PR / ΔH of binding, PR / −TΔS of binding, PR: ITC, pH 5; for Kd: read-out: KL at 25 °C PR (lit.), 25 °C
[6] = target: T3, PRD25N (HIV-1 protease D25N mutant) (Human immunodeficiency virus type 1, UniProt P03367, D525N, form not given); assay: DSC thermal denaturation of PRD25N with inhibitors; type: binding; conditions: inhibitor 28 μM, pH 4.8-5.0; unliganded PRD25N 58.4
[7] = target: T2, mature HIV-1 protease (PR); conditions: cited from earlier work
[8] = target: T3, PRD25N (HIV-1 protease D25N mutant); conditions: cited from earlier work
[9] = tested on: PRD25N (HIV-1 protease D25N mutant); assay: DSC thermal denaturation of PRD25N with inhibitors; type: binding; conditions: DSC
[10] = Tm with inhibitor minus Tm without, twofold molar excess

T1 sequence (P00791 60-385): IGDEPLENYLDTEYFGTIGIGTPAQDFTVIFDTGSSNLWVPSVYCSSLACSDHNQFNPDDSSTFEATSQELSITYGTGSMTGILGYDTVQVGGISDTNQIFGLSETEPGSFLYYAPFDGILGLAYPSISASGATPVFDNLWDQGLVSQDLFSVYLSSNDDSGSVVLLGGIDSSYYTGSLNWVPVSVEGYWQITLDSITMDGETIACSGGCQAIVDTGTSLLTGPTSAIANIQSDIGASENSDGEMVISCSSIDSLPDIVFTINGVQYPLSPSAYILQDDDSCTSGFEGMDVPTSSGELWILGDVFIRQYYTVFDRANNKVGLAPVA

## CC(C)CN(C[C@@H](O)[C@H](Cc1ccccc1)NC(=O)O[C@H]1CCOC1)S(=O)(=O)c1ccc(N)cc1 [APV, Amprenavir]
[1]
  Tm PRD29N: 67.5 °C
P. falciparum
  growth of P. falciparum: did not inhibit
Porcine pepsin [2]
  Kd: 180 nM
  binding constant (KL) from curve fitting of ITC data, pepsin: (5.5 ± 0.5) × 10^6 M
Porcine pepsin [2]; ITC
  stoichiometry of binding to pepsin: 0.97 ± 0.004
Porcine pepsin [2]; ITC, pH 3, 28 °C
  Binding constant (Ka), pepsin: (5.45 ± 0.5) × 10^6 M^−1
  ΔH of binding, pepsin: -4.2 ± 0.3 kcal/mol
  −TΔS of binding, pepsin: -5.1 kcal/mol
Porcine pepsin [3]
  Ki: 300 nM
  inhibition at 16 µM: 75 to 95%
Porcine pepsin [4]
  ΔTm pepsin: 2.7 °C
[5]
  Binding constant (Ka), PR: (5.0 ± 0.3) × 10^9 M^−1
  ΔH of binding, PR: -6.9 kcal/mol
  −TΔS of binding, PR: -6.3 kcal/mol
[6]
  Tm PRD25N: 58.7 °C

## COC(=O)N[C@H](C(=O)N[C@@H](Cc1ccccc1)[C@@H](O)CN(Cc1ccc(-c2ccccn2)cc1)NC(=O)[C@@H](NC(=O)OC)C(C)(C)C)C(C)(C)C [ATV, Atazanavir]
[1]
  Tm PRD29N: 71.7 °C
Porcine pepsin [3]; 16 μM inhibitor
  Inhibition of pepsin under the screening conditions: undetected; also recorded: no detectable inhibition; also recorded: did not inhibit
[5]
  Kd: 0.035 nM
[6]
  Tm PRD25N: 61.4 °C

## Cc1c(O)cccc1C(=O)N[C@@H](CSc1ccccc1)[C@H](O)CN1C[C@H]2CCCC[C@H]2C[C@H]1C(=O)NC(C)(C)C [NFV, Nelfinavir]
Porcine pepsin [3]
  inhibition at 16 µM: ≤ 50%

## CC(C)(C)NC(=O)[C@@H]1CN(Cc2cccnc2)CCN1C[C@@H](O)C[C@@H](Cc1ccccc1)C(=O)N[C@H]1c2ccccc2C[C@H]1O [INV, Indinavir]
Porcine pepsin [3]; 16 μM inhibitor
  Inhibition of pepsin under the screening conditions: undetected; also recorded: did not inhibit

## CC(C)CN(C[C@@H](O)[C@H](Cc1ccccc1)NC(=O)O[C@H]1CO[C@H]2OCC[C@H]21)S(=O)(=O)c1ccc(N)cc1 [DRV, Darunavir]
[1]
  Tm PRD29N: 72.7 °C
Porcine pepsin [2]
  Kd: 1540 nM
  difference in ΔG for binding to the two enzymes (PR and pepsin): 7200 kcal/mol
  binding constant (KL) from curve fitting of ITC data, pepsin: (6.5 ± 0.6) × 10^5 M
Porcine pepsin [2]; ITC
  stoichiometry of binding to pepsin: 0.90 ± 0.01
Porcine pepsin [2]; ITC, pH 3, 28 °C
  −TΔS of binding, pepsin: -2.0 kcal/mol
Porcine pepsin [3]
  Ki: 2140 nM
[5]
  −TΔS of binding, PR: -3.1 kcal/mol
[7]; [10]
  ΔTm PR: 22.4 °C
[7]; twofold molar excess of inhibitor, unliganded PR 65.7
  Tm PR: 88.1 °C
[8]; [10]
  ΔTm PRD25N: 3.1 °C
[8]; twofold molar excess of inhibitor, unliganded PRD25N 58.4
  Tm PRD25N: 61.5 °C

## CC(C)c1nc(CN(C)C(=O)N[C@H](C(=O)N[C@@H](Cc2ccccc2)C[C@H](O)[C@H](Cc2ccccc2)NC(=O)OCc2cncs2)C(C)C)cs1 [RTV, Ritonavir]
[1]
  Tm PRD29N: 66.1 °C
Porcine pepsin [3]
  inhibition at 16 µM: 75 to 95%
[5]
  Binding constant (Ka), PR: (1.0 ± 0.1) × 10^10 M^−1
  ΔH of binding, PR: -4.3 kcal/mol
  −TΔS of binding, PR: -9.4 kcal/mol
[6]
  Tm PRD25N: 61.1 °C

## acetyl pepstatin [Ac-PEP]
[1]
  Tm PRD29N: 58.3 °C
[5]
  Kd: 440 nM
[6]
  Tm PRD25N: 58.8 °C

## Cc1cccc(C)c1OCC(=O)N[C@@H](Cc1ccccc1)[C@@H](O)C[C@H](Cc1ccccc1)NC(=O)[C@H](C(C)C)N1CCCNC1=O [LPV, Lopinavir]
Porcine pepsin [3]
  inhibition at 16 µM: ≤ 50%

## CCC[C@@]1(CCc2ccccc2)CC(O)=C([C@H](CC)c2cccc(NS(=O)(=O)c3ccc(C(F)(F)F)cn3)c2)C(=O)O1 [TPV, Tipranavir]
Porcine pepsin [3]
  inhibition at 16 µM: ≤ 50%

## CC(C)(C)NC(=O)[C@@H]1C[C@@H]2CCCC[C@@H]2CN1C[C@@H](O)[C@H](Cc1ccccc1)NC(=O)[C@H](CC(N)=O)NC(=O)c1ccc2ccccc2n1 [SQV, Saquinavir]
[1]
  Tm PRD29N: 72.3 °C
Porcine pepsin [3]
  inhibition at 16 µM: ≤ 50%
[6]
  Tm PRD25N: 62.6 °C

## O=C1N(Cc2ccc(CO)cc2)[C@H](Cc2ccccc2)[C@H](O)[C@@H](O)[C@@H](Cc2ccccc2)N1Cc1ccc(CO)cc1 [DMP323]
[1]
  Tm PRD29N: 69.2 °C
Porcine pepsin [3]; 24 μM inhibitor
  Inhibition of pepsin under the screening conditions: undetected
[5]
  Kd: 3.8 nM
[9]
  ΔTm ratio ΔTm(PR)/ΔTm(PRD25N): 1-2
[6]
  Tm PRD25N: 67.3 °C
